{
  "source": "patent US10538571B2",
  "about": "“Compositions and methods for neurological diseases” (Coda Biotherapeutics, Inc., priority 2017, dated 2020)",
  "target": "T1, SEQ ID NO:33 with substitution W77M (Homo sapiens, UniProt P36544, F159M/H163T/I152M/R155K/V154L/W156N/W77M/Y151P)",
  "T1 construct": "expressed in transfected cells; host or cells: Lenti-X 293T (HEK293T) cells, pcDNA3.1(+) plasmid",
  "T1 sequence (P36544 with tags, fused parts or gaps W77M/Y151P/I152M/V154L/R155K/W156N/F159M/H163T)": "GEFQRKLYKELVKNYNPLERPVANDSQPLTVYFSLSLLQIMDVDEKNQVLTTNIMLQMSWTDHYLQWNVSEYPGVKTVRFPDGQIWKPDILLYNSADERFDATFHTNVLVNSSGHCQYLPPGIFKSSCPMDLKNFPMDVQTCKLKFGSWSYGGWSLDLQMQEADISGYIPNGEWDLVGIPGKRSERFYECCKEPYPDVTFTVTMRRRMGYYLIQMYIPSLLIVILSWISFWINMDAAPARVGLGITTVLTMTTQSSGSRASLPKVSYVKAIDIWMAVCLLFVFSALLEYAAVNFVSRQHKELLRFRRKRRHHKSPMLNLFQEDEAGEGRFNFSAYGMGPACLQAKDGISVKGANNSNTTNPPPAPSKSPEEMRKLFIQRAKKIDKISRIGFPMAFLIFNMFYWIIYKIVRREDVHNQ",
  "test": "Plate reader YFP quench (anion reporter) assay, dose response curves",
  "assay_type": "cell-based",
  "details": "FIG. 9B",
  "procedure": "Lenti-X 293T cells (LX293T, Clontech) were maintained in DMEM containing 10% FBS and 1% penicillin/streptomycin (Invitrogen). […] The next day, the cells were transiently transfected with 0.1 μg of DNA per well using standard Fugene protocol (Promega). On the day of assay, cells were washed 2 times in 1× extracellular solution (1×ECS: 140 mM NaCl, 5 mM KCl, 1 mM MgCl2, 2 mM CaCl2, 10 mM HEPES, 10 mM glucose, pH 7.2, mOsms 300). After the last wash, 100 μL of 1×ECS was added to the wells and the plate was incubated at 37° C. for 30 min. While incubating the plate, the drugs were diluted to a 2× concentration in 1×ECS-NaI (same components as 1×ECS except the 140 mM NaCl was replaced by 140 mM NaI). The plates were then read on a Flexstation3 (Molecular Devices). Each well, 8 wells at a time, of the plate is read for 2 min using a Flexstation3 (Molecular Devices) as follows: 1) a baseline YFP fluorescence is read for 17 sec, 2) 100 μL of ligand is added, and 3) the changes in YFP fluorescence are then measured every 1.3 sec for the remaining time.\nTo further tune the responsiveness of the engineered LGIC receptors to native and non-native ligands, the binding pocket of each ligand in the alpha7-nAChR was modeled and the amino acid residues that form the binding pocket were mapped. […]",
  "data": [
    {"smiles": "c1cnc2c(c1)C[C@@]1(CN3CCC1CC3)O2", "note": "[AZD-0328]", "values": [
      {"measurement": "increase in EC50 (rightward shift) compared to unmutated SEQ ID NO:33", "value": "> 2", "unit": "log"}
    ]}
  ]
}
